Assay results reported in patent publication US7919623B2, “Naphthyridine derivatives having inhibitory activity against HIV integrase” (Shionogi & Co., Ltd., priority 2004, dated 2011).
Structures can show the parent of a compound that is named as a salt.

Legend:
HIV integrase = HIV integrase (Human immunodeficiency virus type 1 group M subtype B, UniProt P04585); test: biochemical
Description: The inhibitory activities against integrase were determined by the assay described below. • (1) Preparation of DNA Solutions
Before using the DNA solutions, complementary chains were annealed by slowly cooling after boiling.
Streptavidin, obtained from Vector Laboratories, was dissolved in 0.1 M carbonate buffer (composition: 90 mM Na2CO3, 10 mM NaHCO3) at concentration of 40 μg/ml. After coating each well of immunoplates (obtained from NUNC) with 50 μl of the above solution at 4° C. over night, each well was washed twice with PBS (composition: 13.7 mM NaCl, 0.27 mM KCl, 0.43 mM Na2HPO4, 0.14 mM KH2PO4) and blocked with 300 μl of 1% skim milk in PBS for 30 min. Additionally, each well was washed twice with PBS and added 50 μl of substrate DNA solution (2 pmol/μl). The immunoplates were kept at room temperature for 30 min while shaking. Then, each well was washed twice with PBS and once with the distilled water.
Subsequently, in the each well prepared above were added 51 μl of the reaction solution prepared from 12 μl of the buffer (composition: 150 mM MOPS (pH7.2), 75 mM MnCl2, 50 mM 2-mercaptoethanol, 25% glycerol, 500 μg/ml bovine serum albumin-fraction V), and 39 μl of the distilled water. Then 9 μl of an integrase solution (30 pmol) was added and mixed well. In the well of negative control (NC) was added 9 μl of the integrase dilution buffer (composition: 20 mM MOPS (pH7.2), 400 mM potassium glutamate, 1 mM EDTA, 0.1% NP-40, 20% glycerol, 1 mM DTT, 4M urea), and mixed well using a plate mixer.
The plates were incubated at 30° C. for 60 minutes. The reaction solution was removed and washed three times with 250 μl of washing buffer (composition: 150 mM MOPS (pH7.2), 50 mM 2-mercaptoethanol, 25% glycerol, 500 μg/ml bovine serum albumin-fraction V).
Then each well was added with 53 μl of reaction solution prepared from 12 μl of buffer (composition: 150 mM MOPS (pH7.2), 75 mM MgCl2, 50 mM 2-mercaptoethanol, 25% glycerol, 500 μg/ml bovine serum albumin-fraction V) and 41 μl of distilled water. Further, each well was added with 6 μl of DMSO solution of a compound to be tested, and the well of positive control (PC) was added with 6 μl of DMSO, and mixed well by a plate mixer. After incubating the plate for 30 minutes at 30° C., was added 1 μl of target DNA (5 pmol/μl), and mixed well by a plate mixer.
After incubation for 10 minutes at 30° C., each plate was washed twice with PBS after removal of the reaction solution. Then, 100 μl of ×2000 diluted solution of anti-digoxigenin antibody labeled with alkaline phosphatase (sheep Fab fragment: Boehringer) was added allowed to bind for 1 hour at 30° C., and washed twice with PBS containing 0.05% Tween20 and once with PBS in this sequence. Next, 150 μl of the Alkaline phosphatase coloring buffer (composition: 10 mM p-Nitrophenylphosphate (obtained from Vector Laboratories), 5 mM MgCl2, 100 mM NaCl, 100 mM Tris-HCl (pH 9.5)) was added and allowed to react for 2 hours at 30° C. Then the reaction was terminated by the addition of 50 μl of 1N NaOH solution. The optical density at 405 nm (OD405nm) of each well was measured and the inhibition rate (IC50) was determined by the following expression. The inhibition rate(%)=100[1−{(C abs.−NC abs.)/(PC abs.−NC abs.)}]
C abs.; the OD of the well of the compound
NC abs.: the OD of the negative control (NC)
PC abs.: the OD of the positive control (PC)

| SMILES | melting point [°C] | IC50 (HIV integrase) [nM] |
| --- | --- | --- |
| COCC=Cc1nc(C(=O)NCCN(C)C)c(O)c2ncc(Cc3ccc(F)cc3)cc12.Cl.O (hydrate or solvate) [Example B-20, 3-(4-fluorobenzyl)-8-hydroxy-5-(3-methoxypropenyl)[1,6]naphthyridine-7-carboxylic acid (2-dimethylaminoethyl)amide hydrochloride monohydrate] | 156 to 158 | – |
| COCCNC(=O)c1nc(C(=O)OC)c2cc(Cc3ccc(F)cc3)cnc2c1O [Example A-1, Methyl 3-(4-fluorobenzyl)-8-hydroxy-7-(2-methoxyethylcarbamoyl) [1,6]naphthyridine-5-carbonate] | 168 to 169 | 5.81 |
| COCCNC(=O)c1nc(NC(C)=O)c2cc(Cc3ccc(F)cc3)cnc2c1O [Example A-2, 5-acetylamino-3-(4-fluorobenzyl)-8-hydroxy[1,6]naphthyridine-7-carboxylic acid 2-methoxyethyl amide] | 216 to 217 | 46.1 |
| CNC(=O)C(=O)Nc1nc(C(=O)NCCOC)c(O)c2ncc(Cc3ccc(F)cc3)cc12 [Example A-3, N-[3-(4-fluorobenzyl)-8-hydroxy-7-(2-methoxyethylcarbamoyl)[1,6]naphthyridine-5-yl]-N′-methyloxal amide] | – | 41.7 |
| COCCNC(=O)c1nc(C(=O)OCCOC)c2cc(Cc3ccc(F)cc3)cnc2c1O [Example A-5, 3-(4-fluorobenzyl)-8-hydroxy-7-(2-methoxyethylcarbamoyl)[1,6]naphthyridine-5-carboxylic acid 2-methoxyethyl ester] | 139 to 141 | – |
| COCCNC(=O)c1nc(C(=O)OC2CCN(C(C)=O)CC2)c2cc(Cc3ccc(F)cc3)cnc2c1O [Example A-6, 3-(4-fluorobenzyl)-8-hydroxy-7-(2-methoxyethylcarbamoyl)[1,6]naphthyridine-5-carboxylic acid 1-acetylpiperidine-4-yl ester] | 92 to 94 | – |
| CCC(O)CNC(=O)c1nc(NC(=O)COC)c2cc(Cc3ccc(F)cc3)cnc2c1O (centres unmarked) [Example B-1, 3-(4-fluorobenzyl)-8-hydroxy-5-(2-methoxyacetylamino)-[1,6]naphthyridine-7-carboxylic acid (2-hydroxybutyl)amide] | – | 24.1 |
| COCCNC(=O)c1nc(C)c2cc(Cc3ccc(F)cc3)cnc2c1O [Example B-2, 3-(4-fluorobenzyl)-8-hydroxy-5-methyl[1,6]naphthyridine-7-carboxylic acid (2-methoxyethyl)amide] | 167 to 168 | 20 |
| COCCNC(=O)c1nc(C(C)O)c2cc(Cc3ccc(F)cc3)cnc2c1O (centres unmarked) [Example B-3, 3-(4-fluorobenzyl)-8-hydroxy-5-(1-hydroxyethyl)[1,6]naphthyridine-7-carboxylic acid (2-methoxyethyl) amide] | 179 | 17 |
| COCC=Cc1nc(C(=O)NCCOC)c(O)c2ncc(Cc3ccc(F)cc3)cc12 [Example B-4, 3-(4-fluorobenzyl)-8-hydroxy-5-(3-methoxypropenyl)[1,6]naphthyridine-7-carboxylic acid (2-methoxyethyl)amide] | 125 to 126 | 11.3 |
| COCCCNC(=O)c1nc(NC(=O)COC)c2cc(Cc3ccc(F)cc3)cnc2c1O [Example B-5, 3-(4-fluorobenzyl)-8-hydroxy-5-(2-methoxyacetylamino)[1,6]naphthyridine-7-carboxylic acid (3-methoxypropyl) amide] | 159 to 160 | 39.4 |
| COCC(=O)Nc1nc(C(=O)NCCN(C(C)C)C(C)C)c(O)c2ncc(Cc3ccc(F)cc3)cc12 [Example B-6, 3-(4-fluorobenzyl)-8-hydroxy-5-(2-methoxyacetylamino)[1,6]naphthyridine-7-carboxylic acid (2-diisopropylaminoethyl)amide] | 69 to 70 | 141 |
| COCC(=O)Nc1nc(C(=O)NCCOC(C)C)c(O)c2ncc(Cc3ccc(F)cc3)cc12 [Example B-7, 3-(4-fluorobenzyl)-8-hydroxy-5-(2-methoxyacetylamino)[1,6]naphthyridine-7-carboxylic acid (2-isopropoxyethyl)amide] | 149 to 150 | 31.9 |
| COCC(=O)Nc1nc(C(=O)NCCC#N)c(O)c2ncc(Cc3ccc(F)cc3)cc12 [Example B-8, 3-(4-fluorobenzyl)-8-hydroxy-5-(2-methoxyacetylamino)[1,6]naphthyridine-7-carboxylic acid (2-cyanoethyl)amide] | 173 to 175 | 27.4 |
| COCC(=O)Nc1nc(C(=O)NCCN(C)C)c(O)c2ncc(Cc3ccc(F)cc3)cc12 [Example B-9, 3-(4-fluorobenzyl)-8-hydroxy-5-(2-methoxyacetylamino)[1,6]naphthyridine-7-carboxylic acid (2-dimethylaminoethyl)amide] | – | 37.3 |
| COCC(=O)Nc1nc(C(=O)NC(C)CO)c(O)c2ncc(Cc3ccc(F)cc3)cc12 (centres unmarked) [Example B-10, 3-(4-fluorobenzyl)-8-hydroxy-5-(2-methoxyacetylamino)[1,6]naphthyridine-7-carboxylic acid (2-hydroxy-1-methylethyl)amide] | – | 49.7 |

| SMILES | melting point [°C] | IC50 (HIV integrase) [nM] |
| --- | --- | --- |
| COCC(=O)Nc1nc(C(=O)NC(C)C(=O)OC)c(O)c2ncc(Cc3ccc(F)cc3)cc12 (centres unmarked) [Example B-11, Methyl 2-{[3-(4-fluorobenzyl)-8-hydroxy-5-(2-methoxyacetylamino)[1,6]naphthyridine-7-carbonyl]amino}propionate] | 181 to 182 | 51 |
| CCN(CC)CCCNC(=O)c1nc(NC(=O)COC)c2cc(Cc3ccc(F)cc3)cnc2c1O [Example B-12, 3-(4-fluorobenzyl)-8-hydroxy-5-(2-methoxyacetylamino)[1,6]naphthyridine-7-carboxylic acid (3-diethylaminopropyl)amide] | – | 159 |
| COCC(=O)Nc1nc(C(=O)NCCCN(C)C)c(O)c2ncc(Cc3ccc(F)cc3)cc12 [Example B-13, 3-(4-fluorobenzyl)-8-hydroxy-5-(2-methoxyacetylamino)[1,6]naphthyridine-7-carboxylic acid (3-dimethylaminopropyl)amide] | – | 70.3 |
| CCOCCNC(=O)c1nc(NC(=O)COC)c2cc(Cc3ccc(F)cc3)cnc2c1O [Example B-14, 3-(4-fluorobenzyl)-8-hydroxy-5-(2-methoxyacetylamino)[1,6]naphthyridine-7-carboxylic acid (2-ethoxyethyl)amide] | 175 to 177 | 48.2 |
| COCC(=O)Nc1nc(C(=O)NCCC(=O)OC)c(O)c2ncc(Cc3ccc(F)cc3)cc12 [Example B-15, Methyl 3-([3-(4-fluorobenzyl)-8-hydroxy-5-(2-methoxyacetylamino)[1,6]naphthyridine-7-carbonyl]amino)propionate] | 168 to 170 | 44.6 |
| COCCN(C)C(=O)c1nc(NC(=O)COC)c2cc(Cc3ccc(F)cc3)cnc2c1O [Example B-16, 3-(4-fluorobenzyl)-8-hydroxy-5-(2-methoxyacetylamino)[1,6]naphthyridine-7-carboxylic acid (2-methoxyethyl)methylamide] | 66 to 68 | 57 |
| COCC=Cc1nc(C(=O)NCCN(C)C)c(O)c2ncc(Cc3ccc(F)cc3)cc12 [Example B-20, 3-(4-fluorobenzyl)-8-hydroxy-5-(3-methoxypropenyl)[1,6]naphthyridine-7-carboxylic acid (2-dimethylaminoethyl)amide hydrochloride monohydrate] | – | 34.5 |
| CCC(O)CNC(=O)c1nc(C(=O)NC(C)(C)C)c2cc(Cc3ccc(F)cc3)cnc2c1O (centres unmarked) [Example B-21, 3-(4-fluorobenzyl)-8-hydroxy[1,6]naphthyridine-5,7-dicarboxylic acid 5-tert-butylamide 7-[(2-hydroxybutyl)amide]] | – | 17.9 |
| CCC(O)CNC(=O)c1nc(C(=O)NCCOC)c2cc(Cc3ccc(F)cc3)cnc2c1O (centres unmarked) [Example B-22, 3-(4-fluorobenzyl)-8-hydroxy[1,6]naphthyridine-5,7-dicarboxylic acid 7-[(2-hydroxybutyl)amide] 5-[(2-methoxyethyl)amide]] | – | 36.1 |
| CCC(O)CNC(=O)c1nc(C(=O)NCCCN2CCCC2=O)c2cc(Cc3ccc(F)cc3)cnc2c1O (centres unmarked) [Example B-23, 3-(4-fluorobenzyl)-8-hydroxy[1,6]naphthyridine-5,7-dicarboxylic acid 7-[(2-hydroxybutyl)amide]5-{[3-(2-oxopyrrolidine-1-yl)propyl]amide}] | – | 35.3 |
| CCC(O)CNC(=O)c1nc(C(=O)NCC2CCCO2)c2cc(Cc3ccc(F)cc3)cnc2c1O (centres unmarked) [Example B-24, 3-(4-fluorobenzyl)-8-hydroxy[1,6]naphthyridine-5,7-dicarboxylic acid 7-[(2-hydroxybutyl)amide] 5-[(tetrahydrofuran-2-ylmethyl)amide]] | – | 30.2 |
| COCCNC(=O)C(=O)Nc1nc(C(=O)NN(C)C)c(O)c2ncc(Cc3ccc(F)cc3)cc12 [Example B-25, N-[7-(N′,N′-dimethylhydrazinocarbonyl)-3-(4-fluorobenzyl)-8-hydroxy[1,6]naphthyridine-5-yl]-N′-(2-methoxyethyl)oxalamide] | 167 to 169 | – |
| CN(C)NC(=O)c1nc(NC(=O)C(=O)N(C)C)c2cc(Cc3ccc(F)cc3)cnc2c1O [Example B-26, N-[7-(N′,dimethylhydrazinocarbonyl)-3-(4-fluorobenzyl)-8-hydroxy[1,6]naphthyridine-5-yl]-N′,N′-dimethyl oxalamide] | 125 to 128 | – |
| CNC(=O)C(=O)Nc1nc(C(=O)NCCO)c(O)c2ncc(Cc3ccc(F)cc3)cc12 [Example B-27, N-[3-(4-fluorobenzyl)-8-hydroxy-7-(2-hydroxyethylcarbamoyl)[1,6]naphthyridine-5-yl]-N′-methyl oxalamide] | 136 to 137 | – |
| CNC(=O)C(=O)Nc1nc(C(=O)NC(C)CO)c(O)c2ncc(Cc3ccc(F)cc3)cc12 (centres unmarked) [Example B-28, N-[3-(4-fluorobenzyl)-8-hydroxy-7-(2-hydroxy-1-methylethylcarbamoyl)[1,6]naphthyridine-5-yl]-N′-methyl oxalamide] | 131 to 133 | – |
